Source: article PMC9537177, “A VEGFR targeting peptide-drug conjugate (PDC) suppresses tumor angiogenesis in a TACE model for hepatocellular carcinoma therapy” (Cell Death Discovery, 2022)
Read-outs that look alike come from different tables or passages of the source. Square brackets hold non-standard residues; d marks the D form. Peptide text beside a SMILES is read from it. Aib = CC(C)(N)C(=O)O

Key:
VX2 liver tumor = experiment: VX2 rabbit liver tumor model with TAE/TACE: tumor growth, necrosis, apoptosis, proliferation, angiogenesis; assay type: in vivo, New Zealand white rabbits; settings: for mean tumor volume at 7 days after TAE procedure: 0.5 mL lipiodol emulsion into tumor-feeding artery, QR-KLU 4 mg/kg; for mean tumor volume at 7 days after TAE procedure / tumor growth rate (V7/V0 × 100%) / mean tumor necrosis rate: DOX 2 mg/kg, KLU 4 mg/kg; for mean tumor volume at 7 days after TAE procedure / mean tumor volume one day before TAE procedure: MR images, 24 rabbits evenly in four groups; for mean tumor volume at 7 days after TAE procedure / mean tumor necrosis rate / mean tumor volume one day before TAE procedure: mean ± SD; for tumor growth rate (V7/V0 × 100%): 7 days after TAE, NS group 276.4%; for tumor growth rate (V7/V0 × 100%) / mean tumor necrosis rate: QR-KLU 4 mg/kg in lipiodol; for mean proportion of apoptotic cells in tumor (TUNEL) / mean proportion of proliferating cells in tumor (Ki67) / mean tumor necrosis rate: 7 days after treatment; for mean proportion of apoptotic cells in tumor (TUNEL) / mean proportion of proliferating cells in tumor (Ki67): versus NS group; for mean tumor necrosis rate: H&E staining; for mean tumor volume one day before TAE procedure: baseline, V = a*b^2/2, VX2 rabbits
Experimental: New Zealand white rabbits (2.5-3 kg) were purchased from the Laboratory Animal Center of Tongji Medical College of Huazhong University of Science and Technology (Wuhan, China). All the animal experimental procedures were performed in accordance with the National Institutes of Health Guidelines for the Care and Use of Laboratory Animals and the protocol was approved by the Ethics Committee of Tongji Medical College, Huazhong University of Science and Technology. Blinding was not possible in most animal experiments. The rabbit VX2 liver tumor model was established according to the method reported by Qian K et al.. […] The acquisition parameters of the sequence are as follows: […], TR 2750 ms, TE 65 ms, the field of view 120 mm × 120 mm, Slice thickness 3 mm in the transverse plane, matrix 152 × 152. The multi-vane technique was used to reduce artifacts and improve image quality, acquisition time 3 min […]; […] Seven days after TACE procedure, tumor size was evaluated again by MR scan and the tumor volume was calculated by formula: V = a * b^2/2 (a, long diameter; b, short diameter). And tumor growth rate was calculated by formula: […] Finally, the VX2 rabbits were sacrificed and the tumor tissues were harvested for biochemical analysis and histopathological examination. […] The IHC staining procedures were performed as previously described. Briefly, the sections were blocked in 3% H2O2 for 25 min and then incubated with goat serum for 15 min. Subsequently, the sections were first washed and incubated with anti-VEGF (1:200, Abcam, USA), and anti-CD31 (1:20; Abcam, USA) overnight at 4 °C, and then incubated with second antibody (Abcam, USA) at 37 °C for 50 min. Next, the sections were stained with 3, 3'-diaminobenzidine (DAB, Service bio, Wuhan […] Biotechnology Co., Ltd., China) for 6 min and rinsed and stained in hematoxylin for 30 s. The sections were then dehydrated in gradient alcohol and sealed in neutral resins. VEGF expression was assessed by semiquantitative IHC based on staining intensity and density, the staining intensity was scored as 0 (negative), 1 (weak), 2 (moderate), and 3 (strong), while the staining density was scored on the basis of the percentage of positively stained cells: 0 (0%), 1 (1-25%), 2 (26-50%), 3 (51-75%), and 4 (76-100%). The total VEGF IHC score was calculated by multiplying the intensity score by the density score. Microvessel density (MVD) was calculated according to the method developed by Weidner et al.

Huh7 cells = experiment: Cell viability (CCK8) assay, Huh7; assay type: cell-based, human; settings: for IC50: CCK8, 48 h treatment in medium with 5% FBS, absorbance 450 nm, mean ± SD, read-out: IC50, cytotoxicity in Huh7 cells
Experimental: (§1) All reagents were purchased from Gibco. All these cells were routinely tested for mycoplasma contamination and tested negative and maintained in a humidified incubator containing 5% CO2 at 37 °C. Cell viability for different cell lines were measured by cell counting kit-8 (CCK8) assays. The cells were incubated on a 96-well plate for 24 h in growth medium prior to drug treatment. […] Then CCK8 (10 μL) was added and the cells were incubated for 1 h at 37 °C with 5% CO2. Absorbance was measured with a microplate reader (Bio-Rad) at a wavelength of 450 nm.

[1] = Therapeutic safety in VX2 tumor-bearing rabbits (organ H&E, serum biochemistry); settings: before and 1, 3, 7 days after treatment; 4 mg/kg in lipiodol via TAE
Experimental: Twenty-four VX2 tumor-burdened rabbits were evenly divided into four groups. After fasting for 12 h, the rabbits were anesthetized by intravenous injection of pentobarbital sodium solution (2 wt.%, 30 mg/kg). The rabbit’s right femoral artery was dissected and a 4-F Cobra catheter (Cook, Inc., Bloomington, Indiana) was inserted into the celiac artery, hepatic arteriography was then performed under the guidance of digital subtraction angiography (DSA), and a 2.7-F coaxial microcatheter (Terumo, Tokyo, Japan) was super-selectively inserted into the tumor donor branch subsequently. The emulsion of drugs and lipiodol were slowly injected into the tumor-feeding artery through the above microcatheter at a speed of 0.5 mL/min. […] After obtaining all DSA images, the sheaths and catheters were removed.
Seven days after treatment, the liver tumors, hearts, lungs, kidneys and spleens were harvested and fixed in 4% phosphate-buffered paraformaldehyde, the specimens were embedded in paraffin blocks and cut into 5‐μm‐thick sections. Following the manufacturer’s guidelines, the sections were stained with haematoxylin and eosin (H&E) for the evaluation of organ toxicity and tumor necrosis, Ki-67 staining and transfer-mediated dUTP nick end labeling (TUNEL) technique were used to detect tumor proliferation and apoptosis, respectively.
Blood samples were collected before treatment and at 1, 3, 7 days after treatment. The blood samples were stood at room temperature for 30 min, and the serum was obtained by centrifugation (room temperature, 8000 rpm, 10 min) for assessment of alanine aminotransferase (ALT), aspartate aminotransferase (AST), total bilirubin (TBIL) and creatinine (CREA). The assays were performed using the commercially ready-made kits following the manufacturers’ instructions.

HUVEC cells [2] = experiment: Wound-healing assay of HUVEC cells; assay type: cell-based, human; settings: 24 h
Experimental: Wound-healing assay was performed according to the protocols reported by Liang et al.. Briefly, HUVEC cells were plated into 12-well plate and grown to create a confluent monolayer. The monolayer was grazed in a straight line to create a “scratch” with a pipette tip. Markings were created close to the scratch to be used as reference points. Then cells were treated with different peptides for 24 h at 37 °C. Images were collected with a Leica DFC480 camera on a phase-contrast microscope equipped with a 10 × objective at room temperature. The free area of the wound was measured by image software. Supplementary Figure S1. Wound healing assay to detect the cell migration influenced by different peptides.

HUVEC cells [3] = experiment: Cell viability (CCK8) assay, HUVEC; assay type: cell-based, human
Experimental: as §1

Huh 7 cells = settings: 80 μM, 24 h, Annexin V-PI FACS
Experimental: Viable cells, early apoptotic cells, necrotic cells, late apoptotic cells were represented by Q4, Q3, Q2 and Q1 respectively.
(§2) The apoptosis assay was performed according to the manufacturer’s instructions using an Annexin V: Fluorescein Isothiocyanate (FITC) Apoptosis Detection Kit I (BD Pharmingen™). Briefly, Huh 7 or HUVEC cells were seeded in a 12-well plate and allowed to grow for 24 h in medium with 10% FBS. Then, the cells were treated with the different peptides in medium with 5% FBS for 24 h’ incubation. The cells were harvested with 0.25% trypsin/EDTA, washed twice with PBS and suspended in 1 × binding buffer. The suspended cells were treated with FITC-labeled Annexin V and propidium iodide (PI) as the protocol indicated and then analyzed by flow cytometry to determine the apoptotic cells. The cells with positive fluorescence intensity signals for both FITC and PI were used for the apoptotic cell count.

HUVEC cells [4] = experiment: Annexin V-FITC/PI cell apoptosis assay, HUVEC; assay type: cell-based, human; settings: 80 μM, 24 h, Annexin V-PI FACS
Experimental: The improved proapoptotic activity of QR-KLU was further confirmed by Annexin V-PI staining through FACS. Viable cells, early apoptotic cells, necrotic cells, late apoptotic cells were represented by Q4, Q3, Q2 and Q1 respectively. […] Besides, QR-KLU induced cell apoptosis in a dose-dependent manner. […] The percentage of apoptotic cells in KLU peptide at 20 μM were about 25% in both Huh7 cells and HUVEC cells.
as §2
Supplementary Figure S2. Cell apoptosis of HUVEC induced by different peptides. HUVEC cells were treated with PBS, 80μM QR, 20μM KLU, 5μM QR-KLU, 10μM QR-KLU for 24 hours before detection by FACS.

Compound	mean tumor volume at 7 days after TAE procedure (VX2 liver tumor) [mm^3]	tumor growth rate (V7/V0 × 100%) (VX2 liver tumor)	mean proportion of apoptotic cells in tumor (TUNEL) (VX2 liver tumor)	mean proportion of proliferating cells in tumor (Ki67) (VX2 liver tumor)	mean tumor necrosis rate (VX2 liver tumor)	mean tumor volume one day before TAE procedure (VX2 liver tumor) [mm^3]	IC50 (Huh7 cells; Homo sapiens, Huh-7) [µM]	liver and renal toxicity (ALT, AST, TBIL, CREA in serum) [1]	cell migration of HUVEC (wound epithelial gap) (HUVEC cells [2]; 20 μM)	IC50 (Huh7 cells) [µM]	IC50 (HUVEC cells [3]; CCK8, 48 h treatment in medium with 5% FBS, absorbance 450 nm, mean ± SD, read-out: IC50, cytotoxicity in HUVEC cells) [µM]	proapoptotic effect in Huh 7 cells (Huh 7 cells)	cell proliferation or migration of HUVEC (wound healing) (HUVEC cells [2]; 80 μM)	proapoptotic effect in HUVEC cells (HUVEC cells [4])	cellular toxicity in Huh7 cells (Huh7 cells; CCK8, 48 h, up to 80 μM)	cellular toxicity in HUVEC cells (HUVEC cells [3]; CCK8, 48 h, up to 80 μM)
COc1cccc2c1C(=O)c1c(O)c3c(c(O)c1C2=O)C[C@@](O)(C(=O)CO)C[C@@H]3O[C@H]1C[C@H](N)[C@H](O)[C@H](C)O1 [DOX, doxorubicin]	1382.9 ± 563.7	significantly lower than that of the NS group	significantly higher than that in NS group	significantly lower than that in NS group	81.4% ± 2.3	889.0 ± 317.7	0.243 ± 0.076									
CC(=O)N[C@@H](CCCCN)C(=O)N[C@@H](CC(C)C)C(=O)NC(C)(C)C(=O)N[C@@H](CCCCN)C(=O)N[C@@H](CC(C)C)C(=O)NC(C)(C)C(=O)N[C@@H](CCCCN)C(=O)N[C@@H](CCCCN)C(=O)N[C@@H](CC(C)C)C(=O)NC(C)(C)C(=O)N[C@@H](CCCCN)C(=O)N[C@@H](CC(C)C)C(=O)NC(C)(C)C(=O)N[C@@H](CCCCN)C(N)=O [KLU] (Ac-KL[Aib]KL[Aib]KKL[Aib]KL[Aib]K-NH2)	1321.4 ± 210.4	significantly lower than that of the NS group	significantly higher than that in NS group	significantly lower than that in NS group	79.5% ± 8.0	991.8 ± 114.2		no significant liver or renal toxicity	the wound epithelial gap was unchanged or even bigger	36.3 ± 2.7	33.8 ± 0.98					
Ac-QKRKRKKSRYKS-NH2 [QR]												didn’t show obvious proapoptotic effect	not affected	didn’t show obvious proapoptotic effect	negligible toxicity	negligible toxicity
